Assays:
NCI-N87 cell line = type: cell-based, human; conditions: 6 days culture, >0 synergistic, 0 additive, <0 antagonistic
Method: The human gastric cancer cell line NCI-N87 purchased from ATCC was used for evaluation. To a 1536-well cell culture plate, erlotinib (hydrochloride), poziotinib, mubritinib, brigatinib, or BIBF1120 prepared with dimethyl sulfoxide (DMSO) to concentrations of 2 mM, 400 μM, 80 μM, 16 μM, 3.2 μM, and 640 nM, or DMSO was added at 25 nL/well. […] Subsequently, NCI-N87 cells suspended with an RPMI1640 Medium containing 10% fetal bovine serum to a concentration of 4×10^4 cells/mL were seeded at 2.5 μL/well, and cultured at 37° C. under 5% CO2 for 6 days.
(§1) After culturing, a solution obtained by diluting CellTiter-Glo 2.0 Assay (Promega Corporation) with an equivalent amount of Glo Lysis buffer, 1×(Promega Corporation) was added at 2 μL/well, and incubation was performed at room temperature for 1 hour, and luminescence intensity was then measured for each well.
(§2) Cell growth inhibition rate (%) was calculated by using the following calculation expression.
(§3) T: Mean luminescence intensity of wells with specimen B: Mean luminescence intensity of wells with DMSO and medium C: Mean luminescence intensity of wells with DMSO and cells
(§4) Sigmoid fitting with Genedata Screener Analyzer Version 14 (Genedata AG, hereinafter referred to as Screener) was performed for concentration-dependent transition of cell growth inhibition rates under each of combined use conditions.

BxPC-3 cell line = type: cell-based, human; conditions: combined with mubritinib, 6 days culture, >0 synergistic, 0 additive, <0 antagonistic
Method: as §2, §3, §4, §1

KPL-4 cell line = type: cell-based, human; conditions: 6 days culture, >0 synergistic, 0 additive, <0 antagonistic
Method: as §2, §3, §4

EBC-1 cell line = type: cell-based, human; conditions: combined with mubritinib, 6 days culture, >0 synergistic, 0 additive, <0 antagonistic
Method: as §2, §3, §4

MDA-MB-453 cells [1] = experiment: Antitumor test (1): nude mice with subcutaneously transplanted MDA-MB-453 cells; type: in vivo, human; conditions: single administration, five times a week
Method: (§5) Mouse: 5 to 6-week-old BALB/c nude mice (Charles River Laboratories Japan, Inc.) were subjected to experiment.
(§6) Assay and calculation expression: In all of the studies, the major axis and minor axis of a tumor were measured twice a week by using an electronic digital caliper (CD15-CX, Mitutoyo Corp.), and the tumor volume (mm^3) was calculated. The calculation expression is as shown below.
(§7) Tumor volume (mm^3)=1/2×Major axis (mm)×[Minor axis (mm)]^2
(§8) Everolimus was suspended in 30% propylene glycol and 5% Tween 80, and orally administered at a liquid volume of 10 mL/kg. Taselisib was suspended in 0.5% methyl cellulose and 0.2% Tween 80, and orally administered at a liquid volume of 10 mL/kg. Abemaciclib was suspended in 1% hydroxyethyl cellulose and 0.1% antifoam/25 mM phosphate buffer, pH2, and orally administered at a liquid volume of 10 mL/kg.
Everolimus was administered once a day, five times a week, at a dose of 5 mg/kg for 3 weeks. Taselisib was administered once a day, five times a week, at a dose of 5 mg/kg for 3 weeks. Abemaciclib was administered once a day, five times a week, at a dose of 30 mg/kg for 2 weeks.

MDA-MB-453 cells [2] = experiment: Antitumor test (10): nude mice with subcutaneously transplanted MDA-MB-453 cells; type: in vivo, human; conditions: single administration
Method: as §5, §6, §7
MDA-MB-453 cells, a human breast cancer cell line, obtained from ATCC were suspended in Matrigel basement membrane matrix, and 1×10^7 cells were subcutaneously transplanted to the right flank of each female nude mouse, and the mice were randomly grouped 7 days after the transplantation (Day 0). The antibody-drug conjugate (2) was diluted with ABS buffer, and intravenously administered to the tail vein of each mouse once a week at a dose of 1 mg/kg (a liquid volume of 10 mL/kg) for three weeks (Days 0, 7, 14). Alpelisib was suspended in 0.5% methyl cellulose, and orally administered once a day, five times a week, at a dose of 25 mg/kg (a liquid volume of 10 mL/kg) for three weeks from Day 0. Single administration groups and a combined administration group with the antibody-drug conjugate (2) and alpelisib, and an ABS administration group as a control group were established.

786-0 cells = experiment: Antitumor test (8): nude mice with subcutaneously transplanted 786-0 cells; type: in vivo, human; conditions: single administration
Method: as §5, §6, §7
Suspended in 100% Matrigel were 786-0 cells, a human kidney cancer cell line, purchased from ATCC, and 4×10^6 cells were subcutaneously transplanted to the right flank of each female nude mouse, and the mice were randomly grouped 19 days after the transplantation (Day 0). […] Cabozantinib was administered once a day, five times a week, 20 times in total, at a dose of 40 mg/kg.

JIMT-1 cells = experiment: Antitumor test (2): nude mice with subcutaneously transplanted JIMT-1 cells; type: in vivo, human; conditions: single administration; everolimus 5 mg/kg once a day, five times a week, seven times in total
Method: as §5, §6, §7, §8

KPL-4 cells [3] = experiment: Antitumor test (7): nude mice with subcutaneously transplanted KPL-4 cells; type: in vivo, human; conditions: single administration
Method: as §5, §6, §7
KPL-4 cells, a human breast cancer cell line, obtained from Dr. Junichi Kurebayashi, Kawasaki Medical School (British Journal of Cancer. (1999)79 (5/6). 707-717) were suspended in physiological saline, and 1.5×10^7 cells were subcutaneously transplanted to the right flank of each female nude mouse, and the mice were randomly grouped 17 days after the transplantation (Day 0). The antibody-drug conjugate (2) was diluted with ABS buffer, and intravenously administered to the tail vein of each mouse once a week at a dose of 10 mg/kg (a liquid volume of 10 mL/kg) for three weeks (Days 0, 7, 14). Neratinib was suspended in 0.5% methyl cellulose, and orally administered once a day, five times a week, at a dose of 20 mg/kg (a liquid volume of 10 mL/kg) for two weeks. Single administration groups and a combined administration group with the antibody-drug conjugate (2) and neratinib, and an ABS administration group as a control group were established.

MDA-MB-453 cells [4] = experiment: Antitumor test (9): nude mice with subcutaneously transplanted MDA-MB-453 cells; type: in vivo, human; conditions: single administration
Method: as §5, §6, §7
Palbociclib was suspended in 0.5% methyl cellulose, and orally administered once a day, five times a week, at a dose of 50 mg/kg (a liquid volume of 10 mL/kg) for three weeks from Day 0.

COLO201 cells = experiment: Antitumor test (3): nude mice with subcutaneously transplanted COLO201 cells; type: in vivo, human; conditions: single administration; regorafenib 10 mg/kg orally once a day, five times a week, three weeks
Method: as §5, §6, §7, §8

KPL-4 cells [5] = experiment: Antitumor test (4): nude mice with subcutaneously transplanted KPL-4 cells; type: in vivo, human; conditions: single administration; tucatinib 100 mg/kg orally once a day, five times a week, two weeks
Method: as §5, §6, §7, §8

MDA-MB-453 cells [6] = experiment: Antitumor test (5): nude mice with subcutaneously transplanted MDA-MB-453 cells; type: in vivo, human; conditions: single administration; tucatinib 100 mg/kg once a day, five times a week, three weeks
Method: as §5, §6, §7, §8

NCI-N87 cells = experiment: Antitumor test (6): nude mice with subcutaneously transplanted NCI-N87 cells; type: in vivo, human; conditions: single administration; tucatinib 100 mg/kg once a day, five times a week, two weeks
Method: as §5, §6, §7, §8

CC[C@@]1(O)C(=O)OCc2c1cc1n(c2=O)Cc2c-1nc1cc(F)c(C)c3c1c2[C@@H](NC(=O)CO)CC3 [Compound (1)]
Synergy Score, combination with BIBF1120 (NCI-N87 cell line; combined with BIBF1120 (nintedanib)): −0.44 | Synergy Score, combination with Mubritinib (NCI-N87 cell line; combined with mubritinib): −0.45 | Synergy Score, combination with Poziotinib (NCI-N87 cell line; combined with poziotinib): −0.53 | Synergy Score, combination with Mubritinib (BxPC-3 cell line): −0.40 | Synergy Score, combination with Brigatinib (KPL-4 cell line; combined with brigatinib): −0.02 | Synergy Score, combination with Poziotinib (KPL-4 cell line; combined with poziotinib): −0.38 | Synergy Score, combination with Mubritinib (EBC-1 cell line): −0.60

CCN1CCN(Cc2ccc(Nc3ncc(F)c(-c4cc(F)c5nc(C)n(C(C)C)c5c4)n3)nc2)CC1 [abemaciclib]
tumor growth inhibition (TGI) (MDA-MB-453 cells [1]; abemaciclib 30 mg/kg orally once a day, 2 weeks): 68%

Cc1nc(NC(=O)N2CCC[C@H]2C(N)=O)sc1-c1ccnc(C(C)(C)C(F)(F)F)c1 [alpelisib]
tumor growth inhibition (TGI) (MDA-MB-453 cells [2]; alpelisib 25 mg/kg orally once a day, five times a week, three weeks from Day 0): 56%

COc1cc2nccc(Oc3ccc(NC(=O)C4(C(=O)Nc5ccc(F)cc5)CC4)cc3)c2cc1OC [cabozantinib]
tumor growth inhibition (TGI) (786-0 cells; cabozantinib 40 mg/kg once a day, five times a week, 20 times in total): 67%

CO[C@H]1C[C@@H]2CC[C@@H](C)[C@@](O)(O2)C(=O)C(=O)N2CCCC[C@H]2C(=O)O[C@H]([C@H](C)C[C@@H]2CC[C@@H](OCCO)[C@H](OC)C2)CC(=O)[C@H](C)/C=C(\C)[C@@H](O)[C@@H](OC)C(=O)[C@H](C)C[C@H](C)/C=C/C=C/C=C/1C [everolimus]
tumor growth inhibition (TGI) (JIMT-1 cells): 52% | tumor growth inhibition (TGI) (MDA-MB-453 cells [1]; everolimus 5 mg/kg orally once a day, 3 weeks, BALB/c nude mice, day of effect determination): 64%

CCOc1cc2ncc(C#N)c(Nc3ccc(OCc4ccccn4)c(Cl)c3)c2cc1NC(=O)/C=C/CN(C)C [neratinib]
tumor growth inhibition (TGI) (KPL-4 cells [3]; neratinib 20 mg/kg orally once a day, five times a week, two weeks, day of effect determination): 84%

CC(=O)c1c(C)c2cnc(Nc3ccc(N4CCNCC4)cn3)nc2n(C2CCCC2)c1=O [palbociclib]
tumor growth inhibition (TGI) (MDA-MB-453 cells [4]; palbociclib 50 mg/kg orally once a day, five times a week, three weeks from Day 0): 72%

CNC(=O)c1cc(Oc2ccc(NC(=O)Nc3ccc(Cl)c(C(F)(F)F)c3)c(F)c2)ccn1 [regorafenib]
tumor growth inhibition (TGI) (COLO201 cells): 81%

Cc1nc(-c2cn3c(n2)-c2ccc(-c4cnn(C(C)(C)C(N)=O)c4)cc2OCC3)n(C(C)C)n1 [taselisib]
tumor growth inhibition (TGI) (MDA-MB-453 cells [1]; taselisib 5 mg/kg orally once a day, 3 weeks): 67%

Cc1cc(Nc2ncnc3ccc(NC4=NC(C)(C)CO4)cc23)ccc1Oc1ccn2ncnc2c1 [tucatinib]
tumor growth inhibition (TGI) (KPL-4 cells [5]): 78% | tumor growth inhibition (TGI) (MDA-MB-453 cells [6]): 36% | tumor growth inhibition (TGI) (NCI-N87 cells): 65%

antibody-drug conjugate (2): anti-HER3 antibody (SEQ ID NO: 3 and 4) conjugated to the drug-linker via thioether bond; DAR 7 to 8
tumor growth inhibition (TGI) (MDA-MB-453 cells [2]; antibody-drug conjugate (2) 1 mg/kg iv once a week, three weeks (Days 0, 7, 14), grouped 7 days after transplantation): 68% | tumor growth inhibition (TGI) (MDA-MB-453 cells [4]; antibody-drug conjugate (2) 1 mg/kg iv once a week, three weeks (Days 0, 7, 14), grouped 11 days after transplantation): 54% | tumor growth inhibition (TGI) (KPL-4 cells [3]; antibody-drug conjugate (2) 10 mg/kg iv once a week, three weeks (Days 0, 7, 14)): 67%

B1: antibody-drug conjugate (3): anti-CDH6 antibody (SEQ ID NO: 9 residues 20-471, SEQ ID NO: 10 residues 21-233) conjugated to the drug-linker via thioether bond; DAR 7 to 8 (conjugate, chains of the INN, looked up)
VH: EVQLVQSGAEVKKPGASVKVSCKASGYTFTRNFMHWVRQAPGQGLEWMGWIYPGDGETEYAQKFQGRVTITADTSTSTAYMELSSLRSEDTAVYYCARGVYGGFAGGYFDFWGQGTLVTVSS
VL: DIQMTQSPSSLSASVGDRVTITCKASQNIYKNLAWYQQKPGKAPKLLIYDANTLQTGVPSRFSGSGSGSDFTLTISSLQPEDFATYFCQQYYSGWAFGQGTKVEIK
modifications: deruxtecan-type drug-linker, DAR 7-8
tumor growth inhibition (TGI) (786-0 cells; antibody-drug conjugate (3) 10 mg/kg iv on Day 0): 71%
